Results reported in patent publication US20260256919A1, “BIOENHANCERS” (priority 2022, published 2026).
Read-outs that look alike come from different tables or passages of the source.

Tests used:
CYP2C9 = CYP2C9 (Homo sapiens, UniProt P11712); details: for CYP2C9 activity expressed as % Vehicle Control: HLM, diclofenac
CYP3A4/5 [1] = details: microsomes
CYP2C19 = CYP2C19 (Homo sapiens, UniProt P33261); details: microsomes
CYP2C8 = target: T1, CYP2C8 (Homo sapiens, UniProt P10632); details: microsomes; for CYP2C8 activity expressed as % Vehicle Control: human, 10 min, pH 7.4
T1 sequence (P10632 1-490): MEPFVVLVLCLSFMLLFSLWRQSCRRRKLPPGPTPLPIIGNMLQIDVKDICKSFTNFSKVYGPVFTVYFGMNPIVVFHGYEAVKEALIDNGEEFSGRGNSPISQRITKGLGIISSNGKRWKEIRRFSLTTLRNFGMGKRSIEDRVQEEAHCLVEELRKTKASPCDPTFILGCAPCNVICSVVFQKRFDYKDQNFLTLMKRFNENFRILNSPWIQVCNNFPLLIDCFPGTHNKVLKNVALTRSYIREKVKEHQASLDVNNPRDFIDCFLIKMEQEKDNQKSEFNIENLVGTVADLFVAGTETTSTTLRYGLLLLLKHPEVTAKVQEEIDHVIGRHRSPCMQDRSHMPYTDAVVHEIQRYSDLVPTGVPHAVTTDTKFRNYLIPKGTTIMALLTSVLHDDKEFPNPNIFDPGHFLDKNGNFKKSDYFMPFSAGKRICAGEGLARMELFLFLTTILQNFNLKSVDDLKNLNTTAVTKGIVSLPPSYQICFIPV

CYP1A2 = target: T2, CYP1A2 (Homo sapiens, UniProt P05177); details: microsomes; for CYP1A2 activity expressed as % Vehicle Control: human, 10 min, pH 7.4
T2 sequence (P05177 1-516): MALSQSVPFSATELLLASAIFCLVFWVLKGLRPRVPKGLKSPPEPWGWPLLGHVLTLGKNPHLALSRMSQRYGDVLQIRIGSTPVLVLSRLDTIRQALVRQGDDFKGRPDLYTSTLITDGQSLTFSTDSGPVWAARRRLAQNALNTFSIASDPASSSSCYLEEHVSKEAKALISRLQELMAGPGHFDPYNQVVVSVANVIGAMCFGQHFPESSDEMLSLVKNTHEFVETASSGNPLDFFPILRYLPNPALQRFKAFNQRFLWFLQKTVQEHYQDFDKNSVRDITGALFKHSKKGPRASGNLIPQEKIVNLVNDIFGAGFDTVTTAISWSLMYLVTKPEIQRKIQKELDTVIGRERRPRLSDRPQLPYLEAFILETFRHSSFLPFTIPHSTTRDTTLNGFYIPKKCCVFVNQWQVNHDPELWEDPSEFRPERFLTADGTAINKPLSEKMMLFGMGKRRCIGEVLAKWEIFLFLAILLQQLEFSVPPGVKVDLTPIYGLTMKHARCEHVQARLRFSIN

CYP2D6 = CYP2D6 (Homo sapiens, UniProt P10635); details: microsomes
CYP2D6, sequence (P10635 whole entry): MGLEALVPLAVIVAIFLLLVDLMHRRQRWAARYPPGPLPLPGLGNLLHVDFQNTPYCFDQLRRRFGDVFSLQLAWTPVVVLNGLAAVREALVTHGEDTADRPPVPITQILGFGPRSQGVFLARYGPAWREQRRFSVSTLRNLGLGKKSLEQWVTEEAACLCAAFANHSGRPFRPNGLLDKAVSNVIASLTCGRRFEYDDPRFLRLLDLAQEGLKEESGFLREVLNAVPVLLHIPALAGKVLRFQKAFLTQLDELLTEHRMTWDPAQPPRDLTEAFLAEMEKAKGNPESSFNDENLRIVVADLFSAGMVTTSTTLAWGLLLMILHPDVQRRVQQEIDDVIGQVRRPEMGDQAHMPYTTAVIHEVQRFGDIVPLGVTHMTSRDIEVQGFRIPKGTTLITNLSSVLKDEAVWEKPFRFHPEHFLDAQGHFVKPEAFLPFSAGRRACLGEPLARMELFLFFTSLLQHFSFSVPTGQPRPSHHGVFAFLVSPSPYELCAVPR

[2] = in vivo, 5 mg
CYP3A4/5 [3] = details: microsomes; remark: listed apart in the source
CYP2B6 = target: T3, CYP2B6 (Homo sapiens, UniProt P20813); details: microsomes
T3 sequence (P20813 1-491): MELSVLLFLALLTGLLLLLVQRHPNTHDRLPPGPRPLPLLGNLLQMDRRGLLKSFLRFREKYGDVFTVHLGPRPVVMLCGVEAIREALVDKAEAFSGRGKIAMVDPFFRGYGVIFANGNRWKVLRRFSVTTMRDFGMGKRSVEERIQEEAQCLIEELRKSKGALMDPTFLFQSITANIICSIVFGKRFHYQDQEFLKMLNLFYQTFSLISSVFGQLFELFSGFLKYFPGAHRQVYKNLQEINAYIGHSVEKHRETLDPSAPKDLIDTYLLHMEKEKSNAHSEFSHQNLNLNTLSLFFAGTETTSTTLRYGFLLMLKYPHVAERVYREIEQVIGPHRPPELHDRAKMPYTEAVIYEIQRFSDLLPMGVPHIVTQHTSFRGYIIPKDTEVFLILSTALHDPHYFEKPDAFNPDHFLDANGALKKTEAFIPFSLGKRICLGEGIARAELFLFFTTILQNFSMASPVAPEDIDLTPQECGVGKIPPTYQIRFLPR

CYP3A4/5 [4] = test: Direct CYP3A4/5 inhibition, midazolam 1′-hydroxylation in pooled human liver microsomes; details: pH 7.4, probe midazolam 2 μM (1′-hydroxylation)
CYP3A4/5 [5] = test: in vitro; details: human, microsomes, pH 7.4

CYP2C9, sequence (P11712 whole entry): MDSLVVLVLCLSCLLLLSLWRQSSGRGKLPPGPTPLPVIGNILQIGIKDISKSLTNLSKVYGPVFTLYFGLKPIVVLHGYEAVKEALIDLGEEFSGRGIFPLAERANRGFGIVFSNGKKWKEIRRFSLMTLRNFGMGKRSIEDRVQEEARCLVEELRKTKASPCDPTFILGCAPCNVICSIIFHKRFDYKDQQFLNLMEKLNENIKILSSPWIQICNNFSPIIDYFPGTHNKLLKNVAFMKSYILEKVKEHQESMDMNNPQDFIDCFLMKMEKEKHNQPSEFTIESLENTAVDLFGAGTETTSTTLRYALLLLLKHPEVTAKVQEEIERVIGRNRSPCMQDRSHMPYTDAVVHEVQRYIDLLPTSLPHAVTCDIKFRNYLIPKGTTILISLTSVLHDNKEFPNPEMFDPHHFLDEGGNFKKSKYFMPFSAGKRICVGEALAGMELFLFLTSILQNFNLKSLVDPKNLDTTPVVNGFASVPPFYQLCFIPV
CYP2C19, sequence (P33261 whole entry): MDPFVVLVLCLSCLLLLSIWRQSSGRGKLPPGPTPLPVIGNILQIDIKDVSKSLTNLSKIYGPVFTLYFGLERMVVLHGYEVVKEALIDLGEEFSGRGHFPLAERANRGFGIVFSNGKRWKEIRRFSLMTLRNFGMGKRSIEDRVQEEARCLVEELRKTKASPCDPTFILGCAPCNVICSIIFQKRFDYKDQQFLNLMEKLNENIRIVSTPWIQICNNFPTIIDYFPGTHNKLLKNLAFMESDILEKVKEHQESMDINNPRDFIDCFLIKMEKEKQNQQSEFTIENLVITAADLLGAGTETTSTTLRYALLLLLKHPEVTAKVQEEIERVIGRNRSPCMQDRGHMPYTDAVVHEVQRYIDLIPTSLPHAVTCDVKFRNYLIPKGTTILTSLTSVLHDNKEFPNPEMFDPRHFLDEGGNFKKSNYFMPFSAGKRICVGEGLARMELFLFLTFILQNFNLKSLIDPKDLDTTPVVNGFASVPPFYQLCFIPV

Nc1ccc(S(=O)(=O)Nc2ccnn2-c2ccccc2)cc1 [Sulfaphenazole, reference compound]
CYP2C9 activity expressed as % Vehicle Control (CYP2C9; positive control 0.0025 μM): 102.1 % Vehicle Control | CYP2C9 activity expressed as % Vehicle Control (CYP2C9; positive control 0.025 μM): 95.7 % Vehicle Control | CYP2C9 activity expressed as % Vehicle Control (CYP2C9; positive control 0.25 μM): 47.2 % Vehicle Control | CYP2C9 activity expressed as % Vehicle Control (CYP2C9; positive control 2.5 μM): 10.1 % Vehicle Control | CYP2C9 activity expressed as % Vehicle Control (CYP2C9; positive control 25 μM): 1.9 % Vehicle Control

phenylcapsaicyn
IC50 (CYP3A4/5 [1]): > 50000 nM | Inhibition of CYP3A4/5 in words (midazolam) (CYP3A4/5 [1]): no significant inhibition | IC50 (CYP2C19): > 50000 nM | Inhibition of CYP2C19 in words (CYP2C19): no significant inhibition | IC50 (CYP2C8): > 50000 nM | Inhibition of CYP2C8 in words (CYP2C8): no significant inhibition | IC50 (CYP2C9; microsomes): > 50000 nM | Inhibition of CYP2C9 in words (CYP2C9; microsomes): no significant inhibition | Ki (CYP1A2): 340 nM | Ki (CYP2D6): 550 nM | Cmax [2]: ~600 nM | IC50 (CYP3A4/5 [3]): > 50000 nM | Inhibition of CYP3A4/5 in words (testosterone) (CYP3A4/5 [3]): no significant inhibition | IC50 (CYP2B6): > 50000 nM | Inhibition of CYP2B6 in words (CYP2B6): no significant inhibition

N[C@@H]1C[C@H]1c1ccccc1 (racemic) [Tranylcypromine, reference compound]
IC50 (CYP2B6): 3400 nM

Cc1nc2c([nH]1)c(=O)n(C)c(=O)n2Cc1ccco1 [Furafylline]
CYP1A2 activity expressed as % Vehicle Control (CYP1A2; 0.01 μM): 103.9 % Vehicle Control | CYP1A2 activity expressed as % Vehicle Control (CYP1A2; 0.1 μM): 110.2 % Vehicle Control | CYP1A2 activity expressed as % Vehicle Control (CYP1A2; 1 μM): 88.5 % Vehicle Control | CYP1A2 activity expressed as % Vehicle Control (CYP1A2; 10 μM): 41.0 % Vehicle Control | CYP1A2 activity expressed as % Vehicle Control (CYP1A2; 100 μM): 10.1 % Vehicle Control

CCC(C)n1ncn(-c2ccc(N3CCN(c4ccc(OCC5COC(Cn6cncn6)(c6ccc(Cl)cc6Cl)O5)cc4)CC3)cc2)c1=O (stereo not drawn) [Itraconazole]
IC50 at 5 min (CYP3A4/5 [4]): 210 nM | IC50 (CYP3A4/5 [5]): 30 nM

CC(C)(O)c1ccccc1CC[C@@H](SCC1(CC(=O)O)CC1)c1cccc(/C=C/c2ccc3ccc(Cl)cc3n2)c1 [Montelukast, reference compound]
CYP2C8 activity expressed as % Vehicle Control (CYP2C8; 0.001 μM): 96.0 % Vehicle Control | CYP2C8 activity expressed as % Vehicle Control (CYP2C8; 0.01 μM): 91.3 % Vehicle Control | CYP2C8 activity expressed as % Vehicle Control (CYP2C8; 0.1 μM): 66.2 % Vehicle Control | CYP2C8 activity expressed as % Vehicle Control (CYP2C8; 1 μM): 13.3 % Vehicle Control | CYP2C8 activity expressed as % Vehicle Control (CYP2C8; 10 μM): 1.3 % Vehicle Control
